Measured values taken from US4603145A, “Antiatherosclerotic diphenyl alkanamides” (American Cyanamid Company, priority 1983, dated 1986).

Each molecule was assayed against T1, fatty acyl CoA:cholesterol acyl transferase (ACAT) (Rattus norvegicus, UniProt O70536) (assay: Inhibition of enzymatic esterification of cholesterol (ACAT), rat adrenal microsomal supernatant). Details: final concentration of the test compound 5.2 μg./ml., 14C-oleoyl CoA, 37° C., read-out: % INHIBITION (percent inhibition of the ACAT enzyme compared to control values).
T1 construct: The supernatant, containing the microsomal fraction, served as the source of the cholesterol-esterifying enzyme; from tissue; host or cells: rat adrenals (supernatant of homogenate, 1,000 x g, containing the microsomal fraction)
T1 sequence (O70536 1-545): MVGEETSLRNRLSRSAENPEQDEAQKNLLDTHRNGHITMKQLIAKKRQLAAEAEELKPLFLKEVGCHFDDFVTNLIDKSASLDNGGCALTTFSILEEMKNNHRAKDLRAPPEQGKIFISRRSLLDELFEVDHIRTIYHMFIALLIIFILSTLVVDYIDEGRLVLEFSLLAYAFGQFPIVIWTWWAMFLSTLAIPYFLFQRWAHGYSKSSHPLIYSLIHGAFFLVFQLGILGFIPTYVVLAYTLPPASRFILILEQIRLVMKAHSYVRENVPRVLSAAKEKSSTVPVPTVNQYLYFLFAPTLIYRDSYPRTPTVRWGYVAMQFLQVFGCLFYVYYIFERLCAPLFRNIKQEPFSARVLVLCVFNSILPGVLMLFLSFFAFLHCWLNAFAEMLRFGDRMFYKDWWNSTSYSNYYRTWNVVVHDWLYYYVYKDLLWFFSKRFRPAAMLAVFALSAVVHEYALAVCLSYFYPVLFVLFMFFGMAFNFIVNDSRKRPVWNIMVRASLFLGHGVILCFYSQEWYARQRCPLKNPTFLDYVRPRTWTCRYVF
Format: biochemical
Experimental: The compounds of the present invention were tested for their ability to inhibit the enzymatic esterification of cholesterol according to the following procedure:
Rat adrenals were homogenized in 0.2M monobasic potassium phosphate buffer, pH 7.4, and centrifuged at 1,000 times gravity for 15 minutes at 5° C. The supernatant, containing the microsomal fraction, served as the source of the cholesterol-esterifying enzyme, fatty acyl CoA:cholesterol acyl transferase (ACAT). A mixture comprising 50 parts of adrenal supernatant, 10 parts of albumin (BSA) (50 mg./ml.), 20 parts of oleoyl CoA (^14 C-0.4 μCi), 3 parts of test compound, and 500 parts of buffer was pre-incubated at 37° C. for 10 minutes. After treatment with 20 parts of oleoyl CoA (^14 C-0.4 μCi), the mixture was incubated at 37° C. for 10 minutes. A control mixture, omitting the test compound, was prepared and treated in the same manner. The lipids from the incubation mixture were extracted into an organic solvent and separated by thin-layer chromatography. The cholesterol ester fraction was counted in a scintillation counter. This procedure is a modification of that described by Hashimoto, et al., Life Scie., 12 (Part II), 1-12 (1973).
The results of this test on representative compounds of this invention appear in Table I. The final concentration of the test compound was 5.2 μg./ml., and effectiveness of the compound is expressed as percent inhibition of the ACAT enzyme compared to control values.

| inhibition at 5.2 µg/mL [%] | SMILES |
| --- | --- |
| 31 | NC(=O)CC(c1ccc(Cl)cc1)c1ccc(Cl)cc1 [3,3-Bis(p-chlorophenyl)propionamide] |
| 85 | CCOC(=O)CNC(=O)C=C(c1ccc(Cl)cc1)c1ccc(Cl)cc1 [Ethyl N-[3,3-bis(p-chlorophenyl)acryloyl]glycinate] |
| 48 | CCCCN(CCCC)C(=O)CC(c1ccc(Cl)cc1)c1ccc(Cl)cc1 [N,N--Di-(n-butyl)-3,3-bis(p-chlorophenyl)propionamide] |
| 95 | CCCCN(CCCC)C(=O)CC(c1ccc(OC)cc1)c1ccc(OC)cc1 [N,N--Di-(n-butyl)-3,3-bis(p-methoxyphenyl)propionamide] |
| 94 | CCCCN(CCCC)C(=O)CC(c1ccc(C)cc1)c1ccc(C)cc1 [N,N--Di-(n-butyl)-3,3-bis(p-tolyl)propionamide] |
| 93 | O=C(CC(c1ccc(Cl)cc1)c1ccc(Cl)cc1)N(Cc1ccccc1)Cc1ccccc1 [N,N--Dibenzyl-3,3-bis(p-chlorophenyl)propionamide] |
| 87 | COc1ccc(C(CC(=O)N(Cc2ccccc2)Cc2ccccc2)c2ccc(OC)cc2)cc1 [N,N--Dibenzyl-3,3-bis(p-methoxyphenyl)propionamide] |
| 68 | Cc1ccc(C(CC(=O)N(Cc2ccccc2)Cc2ccccc2)c2ccc(C)cc2)cc1 [N,N--Dibenzyl-3,3-bis(p-tolyl)propionamide] |
| 68 | CN(C)C(=O)CC(c1ccc(Cl)cc1)c1ccc(Cl)cc1 [N,N--Dimethyl-3,3-bis(p-chlorophenyl)propionamide] |
| 97 | O=C(CC(c1ccc(Cl)cc1)c1ccc(Cl)cc1)NC12CC3CC(CC(C3)C1)C2 [N--(1-Adamantyl)-3,3-bis(p-chlorophenyl)propionamide] |
| 89 | COc1ccc(C(CC(=O)NC23CC4CC(CC(C4)C2)C3)c2ccc(OC)cc2)cc1 [N--(1-Adamantyl)-3,3-bis(p-methoxyphenyl)propionamide] |
| 76 | Cc1ccc(C(CC(=O)NC23CC4CC(CC(C4)C2)C3)c2ccc(C)cc2)cc1 [N--(1-Adamantyl)-3,3-bis(p-tolyl)propionamide] |
| 92 | CCCCNC(=O)CC(c1ccc(Cl)cc1)c1ccc(Cl)cc1 [N--(n-Butyl)-3,3-bis(p-chlorophenyl)propionamide] |
| 35 | O=C(CC(c1ccc(Cl)cc1)c1ccc(Cl)cc1)NCc1ccccc1 [N--Benzyl-3,3-bis(p-chlorophenyl)propionamide] |
| 45 | CCCCN(Cc1ccccc1)C(=O)CC(c1ccc(Cl)cc1)c1ccc(Cl)cc1 [N--Benzyl-N--(n-butyl)-3,3-bis(p-chlorophenyl)propionamide] |
| 78 | COc1ccc(C(CC(=O)NCCc2ccc(OC)c(OC)c2)c2ccc(OC)cc2)cc1 [N--[2-(3,4-Dimethoxyphenyl)ethyl]-3,3-bis(p-methoxyphenyl)propionamide] |
